Values of other authors in patent US8038645B2 (Bayer Technology Services GmbH, priority 2005, dated 2011).
Read-outs that look alike come from different tables or passages of the source.

Legend:
[1] = input parameter for PK-Sim
[2] = input parameter for PK-Sim; remark: listed apart in the source

CC(C)c1cccc(C(C)C)c1O [propofol]
Lipophilicity [1]: 2.6
Free plasma fraction (age-dependent) [2]: 0.020-0.025
Blood clearance in ml/min: mean (std. dev.) (Ickz et al., adults, mean age 45.2 years, 21 mg/kg/h for 5 min, then 12 mg/kg/h for 10 min, then 6 mg/kg/h): 33.8 (7.8) ml/min
Blood clearance in ml/min: mean (std. dev.) (Kanto et al., pregnant women, mean age 27.1 years, 2.5 mg/kg bolus over 0.17 min): 27.5 (5.5) ml/min
Blood clearance in ml/min: mean (std. dev.) (Mertens et al., young men, mean age 24 years, 1 mg/kg bolus over 1 min, then 3 mg/kg/h): 31.2 (2.8) ml/min
Blood clearance in ml/min: mean (std. dev.) (Raoof et al., children, mean age 1.9 years, 3 mg/kg iv): 38.7 (6.8) ml/min
Blood clearance in ml/min: mean (std. dev.) (Saint-Maurice et al., children, mean age 5.5 years, 2.5 mg/kg bolus over 0.33 min): 30.6 (2.9) ml/min
Blood clearance in ml/min: mean (std. dev.) (Valtonen et al., children, mean age 6.5 years, 2.5 mg/kg bolus over 0.5 min): 32.0 (16.8) ml/min
Clearance (age-dependent) (input parameter for PK-Sim): 29 to 50 mL/min/kg
